# Test results as given in paper PMC8151276, “An Integrated Approach toward NanoBRET Tracers for Analysis of GPCR Ligand Engagement” (Molecules, 2021).
# Tests used:
# Type in all cases: binding
# PTGER2 = target: T1, PTGER2 (Homo sapiens, UniProt P43116); assay: NanoBRET screen HiBiT-PTGER2 in HEK293; conditions: PTGER2
# T1 construct: purchased Promega (in-house HiBiT-GPCR construct library, NanoBRET)
# Method: (§1) Each tracer candidate was screened across the entire library of HiBiT-GPCR constructs using NanoBRET as the detection modality. As depicted in Figure 4A, the specificity of interactions was evaluated through decrease in BRET due to competitive displacement of a bound tracer by excess parental compound. Each tracer was analyzed for binding to each HiBiT-GPCR fusion in the absence and in the presence of competing parental compound. Briefly, HEK293 cells were transfected with HiBiT-GPCR constructs diluted into promoterless DNA to reduce expression and maximize translocation to the cell surface. Each tracer candidate was then screened at concentrations of 1 μM and 0.1 μM across cells expressing these fusions. Cells were treated for 1.5 h with tracer either alone or in the presence of 20 μM competing parental compound (i.e., control). BRET was measured upon addition of purified LgBiT and subsequent complementation with HiBiT genetically fused to a GPCR. The specificity of interactions was assessed through a decrease in BRET signal due to competitive displacement of the bound tracer. To further gauge the robustness of these interactions, the fold response over the control (i.e., BRETtracer/BRETcontrol) was calculated. We chose a 1.5-fold response, which translates to ≥7-fold signal over noise as the minimal threshold required to score an interaction as positive. […]. Below we highlight the screening results obtained for our exemplary fluorescent tracers based on Clozapine, Amitriptyline and AZD1283.
# (§2) HiBiT-GPCR DNA constructs were diluted in 10 mM Tris pH 8 to a final concentration of 0.01 μg/μL, arrayed in 96-well plates and stored at −20 °C. For transfection, HEK293 cells were suspended in Opti-MEM (without phenol red) supplemented with 2% fetal bovine serum (Seradigm) and 100 units/mL penicillin–streptomycin (Gibco) at a final concentration of 220,000 cells/mL and dispensed into white 96-well plates at 90 μL/well. Subsequent transfections and screens were carried using an Agilent Bravo Automated Liquid Handling Platform. First, the 96-well HiBiT DNA arrays were diluted 25-fold in Opti-MEM (without serum or phenol red) to a final concentration of 0.0004 μg/μL and 20 μL of the diluted DNAs were transferred into new 96-well plates. Next, promoterless carrier DNA (1 μg/μL) was diluted 25-fold (0.04 μg/μL) and then dispensed into the diluted arrays at 20 μL/well. Following brief mixing, Viafect transfection reagent (Promega) diluted 16-fold into Opti-MEM was dispensed into the plates at 40 μL/well. After mixing by pipetting, plates were incubated for 10 min on the pipetting station deck. The DNA-transfection reagent complexes were then added to plates containing cells. To facilitate the screen, 10 μL of DNA-transfection reagent complexes were added in duplicates to the top 4 and bottom 4 rows, resulting in two identical 48-well arrays per plate. Plates with transfected cells were incubated for 18–20 h at 37 °C/5% CO2. A screen of each tracer across the entire library using two different concentrations requires duplicate plates of transfected cells. Depending on the number of tracers being screened, transfections can be scaled up using the same ratios. The next day, for each tracer, four 20× screening solutions in tracer dilution buffer (Promega) were prepared: two duplicates at final concentration of 20 μM and two duplicates at a final concentration of 2 μM. A competing unmodified compound was added to one of each duplicate at a final concentration of 400 μM. The four resulting solutions were diluted 4-fold in Opti-MEM without serum or phenol red to generate 5× solutions (5 µM and 0.5 µM tracer +/− 100 μM competing compound). To screen the library, a BioTek MultiFlo FX liquid dispenser was used to dispense 22.5 µL of tracer solution to the top 4 rows and 22.5 µL tracer + competing compound solution to the 4 bottom rows. Plates were briefly mixed on an orbital shaker and incubated for 1.5 h at room temperature. […]
# FZD6 = target: T2, FZD6 (Homo sapiens, UniProt O60353); assay: NanoBRET screen HiBiT-FZD6 in HEK293; conditions: FZD6
# T2 construct: purchased Promega (in-house HiBiT-GPCR construct library, NanoBRET)
# T2 sequence (O60353 19-706): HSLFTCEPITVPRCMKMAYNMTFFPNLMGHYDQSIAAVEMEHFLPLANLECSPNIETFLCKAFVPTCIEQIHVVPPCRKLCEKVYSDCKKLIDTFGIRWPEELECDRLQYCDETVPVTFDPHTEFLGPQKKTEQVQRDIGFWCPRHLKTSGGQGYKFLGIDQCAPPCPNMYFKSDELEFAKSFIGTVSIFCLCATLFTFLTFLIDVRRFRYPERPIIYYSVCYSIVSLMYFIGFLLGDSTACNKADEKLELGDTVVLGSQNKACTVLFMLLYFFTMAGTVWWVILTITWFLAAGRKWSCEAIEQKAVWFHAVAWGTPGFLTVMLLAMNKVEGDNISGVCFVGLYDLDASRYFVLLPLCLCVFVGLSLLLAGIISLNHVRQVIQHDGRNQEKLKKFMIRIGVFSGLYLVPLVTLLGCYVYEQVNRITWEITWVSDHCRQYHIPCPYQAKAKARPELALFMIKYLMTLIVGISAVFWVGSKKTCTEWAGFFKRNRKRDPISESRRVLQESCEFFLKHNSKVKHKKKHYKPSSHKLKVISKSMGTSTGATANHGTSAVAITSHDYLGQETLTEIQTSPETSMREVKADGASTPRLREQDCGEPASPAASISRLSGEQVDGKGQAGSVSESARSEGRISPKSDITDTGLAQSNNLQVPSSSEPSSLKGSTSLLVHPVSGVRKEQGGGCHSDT
# Method: as §1, §2
# NPY1R = target: T3, NPY1R (Homo sapiens, UniProt P25929); assay: NanoBRET screen HiBiT-NPY1R in HEK293; conditions: NPY1R
# T3 construct: purchased Promega (in-house HiBiT-GPCR construct library, NanoBRET)
# T3 sequence (P25929 1-384): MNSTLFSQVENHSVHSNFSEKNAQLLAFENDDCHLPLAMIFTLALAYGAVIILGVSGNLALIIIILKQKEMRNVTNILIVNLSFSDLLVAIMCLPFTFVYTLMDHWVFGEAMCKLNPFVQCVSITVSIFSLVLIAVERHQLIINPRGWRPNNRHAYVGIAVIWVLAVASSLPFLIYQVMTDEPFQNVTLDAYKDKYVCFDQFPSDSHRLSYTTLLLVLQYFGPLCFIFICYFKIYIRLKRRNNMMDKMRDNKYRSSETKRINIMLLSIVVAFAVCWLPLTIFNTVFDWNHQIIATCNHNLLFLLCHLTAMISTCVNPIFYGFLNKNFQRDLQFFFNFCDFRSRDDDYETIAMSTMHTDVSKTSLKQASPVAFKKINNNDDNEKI
# Method: as §1, §2
# SMO = target: T4, SMO (Homo sapiens, UniProt Q99835); assay: NanoBRET screen HiBiT-SMO in HEK293; conditions: SMO
# T4 construct: purchased Promega (in-house HiBiT-GPCR construct library, NanoBRET)
# Method: as §1, §2
# HRH4 = target: T5, HRH4 (Homo sapiens, UniProt Q9H3N8); assay: NanoBRET screen HiBiT-HRH4 in HEK293; conditions: HRH4
# T5 construct: purchased Promega (in-house HiBiT-GPCR construct library, NanoBRET)
# Method: as §1, §2
# T5 sequence (Q9H3N8 whole entry): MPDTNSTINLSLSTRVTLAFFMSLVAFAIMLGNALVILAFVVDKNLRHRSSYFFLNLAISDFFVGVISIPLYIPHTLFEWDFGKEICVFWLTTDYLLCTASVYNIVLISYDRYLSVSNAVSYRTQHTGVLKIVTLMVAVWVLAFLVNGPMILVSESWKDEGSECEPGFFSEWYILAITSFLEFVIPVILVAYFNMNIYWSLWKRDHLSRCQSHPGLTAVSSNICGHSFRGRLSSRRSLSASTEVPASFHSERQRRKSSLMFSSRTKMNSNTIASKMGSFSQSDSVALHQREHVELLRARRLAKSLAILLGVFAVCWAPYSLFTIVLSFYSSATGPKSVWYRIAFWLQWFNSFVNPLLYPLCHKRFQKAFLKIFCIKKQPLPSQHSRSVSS
# T1 sequence (P43116 whole entry): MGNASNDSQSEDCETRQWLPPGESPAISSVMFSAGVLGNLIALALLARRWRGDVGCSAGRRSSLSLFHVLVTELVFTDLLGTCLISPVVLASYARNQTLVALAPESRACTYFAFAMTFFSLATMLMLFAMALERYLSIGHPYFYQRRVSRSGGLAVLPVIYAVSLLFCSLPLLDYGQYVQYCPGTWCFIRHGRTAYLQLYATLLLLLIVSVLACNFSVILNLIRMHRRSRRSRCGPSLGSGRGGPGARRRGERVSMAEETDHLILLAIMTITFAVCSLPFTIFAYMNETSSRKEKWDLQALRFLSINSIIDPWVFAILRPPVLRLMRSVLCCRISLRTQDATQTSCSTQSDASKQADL
# T4 sequence (Q99835 28-787): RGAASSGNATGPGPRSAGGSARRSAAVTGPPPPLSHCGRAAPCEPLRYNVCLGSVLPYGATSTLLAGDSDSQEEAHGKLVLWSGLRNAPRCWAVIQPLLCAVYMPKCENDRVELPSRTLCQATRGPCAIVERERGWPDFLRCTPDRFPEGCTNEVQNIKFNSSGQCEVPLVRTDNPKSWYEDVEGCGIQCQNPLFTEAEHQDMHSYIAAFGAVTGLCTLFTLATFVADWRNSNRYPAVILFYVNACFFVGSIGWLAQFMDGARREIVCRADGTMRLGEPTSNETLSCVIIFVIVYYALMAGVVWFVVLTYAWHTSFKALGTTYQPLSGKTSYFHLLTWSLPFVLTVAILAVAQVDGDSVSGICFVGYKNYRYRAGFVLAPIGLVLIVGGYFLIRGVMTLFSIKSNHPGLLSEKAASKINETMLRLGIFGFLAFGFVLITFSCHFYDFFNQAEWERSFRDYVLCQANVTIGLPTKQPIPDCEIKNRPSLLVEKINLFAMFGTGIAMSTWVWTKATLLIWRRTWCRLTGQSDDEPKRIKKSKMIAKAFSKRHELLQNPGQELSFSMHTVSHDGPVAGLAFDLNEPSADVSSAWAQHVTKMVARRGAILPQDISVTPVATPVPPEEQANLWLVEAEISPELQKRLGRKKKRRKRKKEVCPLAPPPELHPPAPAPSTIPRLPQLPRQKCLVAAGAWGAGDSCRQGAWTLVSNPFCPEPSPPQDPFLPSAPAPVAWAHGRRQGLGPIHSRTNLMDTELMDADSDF
Structure (SMILES),NanoBRET Fold Response (PTGER2; tracer 0.1μM),NanoBRET Fold Response (PTGER2; tracer 1μM),NanoBRET Fold Response (FZD6; tracer 0.1μM),NanoBRET Fold Response (FZD6; tracer 1μM),NanoBRET Fold Response (NPY1R; tracer 0.1μM),NanoBRET Fold Response (NPY1R; tracer 1μM),NanoBRET Fold Response (SMO; tracer 0.1μM),NanoBRET Fold Response (SMO; tracer 1μM),NanoBRET Fold Response (HRH4; tracer 0.1μM),NanoBRET Fold Response (HRH4; tracer 1μM)
CC(C)N(CC[C@H](c1ccccc1)c1cc(CCNC(=O)c2ccc(CNC(=O)CCc3ccc4n3[B-](F)(F)[N+]3=C(c5ccc[nH]5)C=CC3=C4)cc2)ccc1O)C(C)C [Tolterodine-BZ-NB590],1.04,0.97,0.97,1.04,1.15,0.95,0.93,0.94,0.82,0.88
CCCn1c(=O)c2[nH]c(-c3ccc(OCC(=O)NCCNC(=O)CCOCCNC(=O)c4ccc(CNC(=O)CCc5ccc6n5[B-](F)(F)[N+]5=C(c7ccc[nH]7)C=CC5=C6)cc4)cc3)nc2n(CCC)c1=O [XAC-3-NB590],1.04,1.09,0.95,1.05,1.01,0.95,1.01,1.05,1.37,1.05
